In one series the test system is naïve mice. As to the kind of experiment: Spontaneous locomotor activity of naïve mice. It is filed as in vivo. Conditions: compound alone.
The next series concerns the target T1, human mGlu8 receptor (Homo sapiens, UniProt O00222).
T1 construct: expressed in transfected cells; host or cells: T-REx 293 (tetracycline-inducible)
Briefly: mGlu8 receptor selectivity, cAMP accumulation screening at 10 µM. It is filed as cell-based. As to conditions: group III mGlu receptors. The procedure: The cell lines with the tetracycline-inducible expression of human metabotropic receptors 4, 7, and 8 were described in detail by Chruścicka et al. (mGlu4 receptor NM_000841, mGlu7 receptor NM_000844.2, and mGlu8 receptor NM_000845). Cells were grown under standard cell culture conditions (37 °C, 5% CO2) in DMEM supplemented with 10% tetracycline-free FBS. The expression was induced through the addition of tetracycline to the culture medium at 0.75 μg/mL.
The determination of the intracellular cAMP through homogeneous time-resolved fluorescence (HTRF) was described in detail previously. […] The intracellular concentration of cyclic AMP was measured by means of a cAMP Gi HTRF kit from Cisbio, according to the manufacturer’s instructions. After 1 h of incubation at room temperature, the fluorescence at 620 nm and 665 nm was read (Tecan Infinite M1000). The results were calculated as the 665 nm/620 nm ratio multiplied by 10^4. […] Data were analyzed using GraphPad Prism version 5.04 for Windows (GraphPad Software, San Diego, USA).
Firstly, all compounds were screened at 10 μM using three cell lines expressing the mGlu4/7/8 receptor to evaluate selectivity. […] For compounds that passed the screening procedure, the dose–response curve in the presence of LSP4-2022 in 5 μM was evaluated compared to reference NAM ADX71743. […]
Background: Cyclic AMP is a second messenger, typically raised through Gs and lowered through Gi signalling.

The subject of series [1] is recognition index in mice. Briefly: Novel object recognition test. It is filed as in vivo. How it is done:
This procedure was adapted from and performed as described in a previous paper. Habituation, training and test trials were performed in a black plastic rectangular arena (40 × 30 × 35 cm) illuminated with a light intensity of 335 lux. During the habituation trial (2 consecutive days), each animal was allowed to explore the arena for 10 min. The next day, during the training trial (T1), mice were placed in the arena and were presented with two identical objects (red glass cylinders; 6.5 cm in diameter and 4.5 cm high) for 5 min. After 1 h, animals were placed back into the arena for a 5 min test trial, during which one of the previously presented familiar objects was replaced with a novel object (a transparent glass elongated sphere-like object with an orange cap; 5.5 cm in diameter and 8.5 cm high). Time spent exploring (i.e., sniffing or touching) the familiar (Tfamiliar) and novel (Tnovel) objects was measured by a trained observer, and the recognition index (%) was calculated for each mouse [(Tnovel − Tfamiliar)/(Tfamiliar + Tnovel)] “×” 100.

The subject of series [2] is prepulse inhibition in rats. Briefly: Prepulse inhibition test. It is filed as in vivo.
In series [3] the test system is DOI-induced head twitches in mice. Briefly: DOI-induced head twitch test. It is filed as in vivo. The procedure:
The experiments were performed according to the procedure described in our previous studies. Briefly, to habituate mice to the experimental environment, each animal was transferred to a 12 cm (diameter) × 20 cm (height) glass cage lined with sawdust 30 min before treatment. Test compounds were administered intraperitoneally (i.p.) at doses of 2.5, 5, and 10 mg/kg body weight 60 min before the test was performed. The head twitch response (HTR) in mice was induced using DOI (2.5 mg/kg, i.p.). Immediately after treatment, the number of head twitches was counted during a 20 min session.

Series [4] deals with MK-801-induced hyperactivity in mice. As to the kind of experiment: MK-801-induced hyperactivity. It is filed as in vivo. As to conditions: mice, 2.5, 5, or 10 mg/kg. The procedure:
The locomotor activity was recorded individually for each animal in locomotor activity cages with modifications. […] After 30 min, all of the mice were injected i.p. with MK-801 at 0.35 mg/kg and once again placed in the same cage. From then on, the ambulation scores were counted for 60 min. All of the groups were compared with the MK-801 control group. The experiment also included a control group treated with NaCl only.

T1 sequence (O00222 34-908): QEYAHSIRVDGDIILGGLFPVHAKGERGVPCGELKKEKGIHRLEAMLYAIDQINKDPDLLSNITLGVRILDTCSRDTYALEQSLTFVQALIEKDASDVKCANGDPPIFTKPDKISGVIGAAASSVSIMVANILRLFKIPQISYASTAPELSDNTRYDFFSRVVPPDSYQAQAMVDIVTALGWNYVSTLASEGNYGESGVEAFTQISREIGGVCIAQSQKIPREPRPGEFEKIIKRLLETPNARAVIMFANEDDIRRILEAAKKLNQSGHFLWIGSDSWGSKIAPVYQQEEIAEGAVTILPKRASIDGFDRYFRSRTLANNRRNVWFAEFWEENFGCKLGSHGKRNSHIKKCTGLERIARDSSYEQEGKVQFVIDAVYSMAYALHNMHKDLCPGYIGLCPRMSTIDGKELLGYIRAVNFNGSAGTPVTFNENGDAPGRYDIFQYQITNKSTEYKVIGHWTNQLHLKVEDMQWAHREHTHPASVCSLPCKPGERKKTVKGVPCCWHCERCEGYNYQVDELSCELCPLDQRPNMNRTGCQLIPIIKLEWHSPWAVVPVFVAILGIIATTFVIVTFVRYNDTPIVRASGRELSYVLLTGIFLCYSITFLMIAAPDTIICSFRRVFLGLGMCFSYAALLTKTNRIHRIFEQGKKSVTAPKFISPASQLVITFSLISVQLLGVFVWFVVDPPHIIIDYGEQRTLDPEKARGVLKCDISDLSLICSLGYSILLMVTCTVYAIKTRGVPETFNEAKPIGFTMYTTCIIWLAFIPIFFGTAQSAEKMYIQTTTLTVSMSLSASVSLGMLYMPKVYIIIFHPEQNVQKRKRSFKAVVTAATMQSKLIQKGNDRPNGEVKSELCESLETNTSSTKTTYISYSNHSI

For the compound `COc1cccc(-c2ccc3nc(-c4ccccc4Cl)n(C)c(=O)c3c2)c1OC` [ALX-171, 2-(2-chlorophenyl)-6-(2,3-dimethoxyphenyl)-3-methylquinazolin-4(3H)-one], in the series with naïve mice, the spontaneous locomotor activity entry is “no effect”. The “selectivity over mGlu8” value at human mGlu8 receptor is “selective”. Moreover, the “MK-801-induced decrease in the recognition index (NOR)” value in series [1] (mice, 1, 2.5, and 5 mg/kg) is “ameliorated”. Besides, in series [1] (naïve mice), the “recognition index, compound alone (NOR)” value is listed as “no significant impact”. Besides, the “MK-801-induced decrease of prepulse inhibition” value in series [2] (any of the investigated doses) is reported as “no effect”. In addition, the “disturbance of the PPI response, compound alone” value in series [2] (highest investigated dose 10 mg/kg) was ~ 50%. Further, the “DOI-induced head twitches in mGlu7 knockout (KO) mice” value in series [3] (mGlu7 KO mice) was “had no further effect”. The “number of DOI-induced head shakes” value in series [3] (mice, 2.5, 5, and 10 mg/kg i.p., vs control group) is reported as “significantly attenuated”. Further, in series [4], the “MK-801-induced increase in locomotor activity” value is “not able to reverse”.

The record behind these values is article PMC9916658, “Design and Synthesis of New Quinazolin-4-one Derivatives with Negative mGlu7 Receptor Modulation Activity and Antipsychotic-Like Properties” (International Journal of Molecular Sciences, 2023).
